For three compounds, remaining activity results are on record in US20240246942A1, “KINASE INHIBITORS FOR THE TREATMENT OF NEURODEGENERATIVE DISEASES” (priority 2020, published 2024).

Holding throughout (experiment): biochemical
In assay [1] the target is T1, panel of 374 wild-type kinases (Homo sapiens, UniProt O60285).
T1 construct: purchased Reaction Biology Corporation
T1 sequence (O60285 1-661): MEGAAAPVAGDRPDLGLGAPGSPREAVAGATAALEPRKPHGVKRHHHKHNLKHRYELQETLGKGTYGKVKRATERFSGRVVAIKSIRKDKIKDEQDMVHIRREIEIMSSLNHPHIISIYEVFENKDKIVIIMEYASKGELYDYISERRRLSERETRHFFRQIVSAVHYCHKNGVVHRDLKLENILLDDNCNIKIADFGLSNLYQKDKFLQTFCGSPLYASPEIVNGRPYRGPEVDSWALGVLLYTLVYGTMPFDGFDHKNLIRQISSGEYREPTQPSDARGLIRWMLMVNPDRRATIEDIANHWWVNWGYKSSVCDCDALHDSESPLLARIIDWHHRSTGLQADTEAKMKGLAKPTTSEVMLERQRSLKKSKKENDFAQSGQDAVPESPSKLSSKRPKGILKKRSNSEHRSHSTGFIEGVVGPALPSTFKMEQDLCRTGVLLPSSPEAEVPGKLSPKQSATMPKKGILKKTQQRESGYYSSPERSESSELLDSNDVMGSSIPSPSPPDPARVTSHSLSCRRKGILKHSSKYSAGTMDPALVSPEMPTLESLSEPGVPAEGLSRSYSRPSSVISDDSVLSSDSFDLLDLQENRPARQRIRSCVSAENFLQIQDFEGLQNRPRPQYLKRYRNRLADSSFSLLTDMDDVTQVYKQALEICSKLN
The note with it: read-out: % Enzyme Activity (relative to DMSO controls), ARK5/NUAK1.

Assay [2] concerns the target T2, panel of 374 wild-type kinases (Homo sapiens, UniProt Q96NX5).
T2 construct: purchased Reaction Biology Corporation
The following applies: read-out: % Enzyme Activity (relative to DMSO controls), CAMK1g.

The target of assay [3] is T3, panel of 374 wild-type kinases (Homo sapiens, UniProt Q9Y6E0).
T3 construct: purchased Reaction Biology Corporation
T3 sequence (Q9Y6E0 whole entry): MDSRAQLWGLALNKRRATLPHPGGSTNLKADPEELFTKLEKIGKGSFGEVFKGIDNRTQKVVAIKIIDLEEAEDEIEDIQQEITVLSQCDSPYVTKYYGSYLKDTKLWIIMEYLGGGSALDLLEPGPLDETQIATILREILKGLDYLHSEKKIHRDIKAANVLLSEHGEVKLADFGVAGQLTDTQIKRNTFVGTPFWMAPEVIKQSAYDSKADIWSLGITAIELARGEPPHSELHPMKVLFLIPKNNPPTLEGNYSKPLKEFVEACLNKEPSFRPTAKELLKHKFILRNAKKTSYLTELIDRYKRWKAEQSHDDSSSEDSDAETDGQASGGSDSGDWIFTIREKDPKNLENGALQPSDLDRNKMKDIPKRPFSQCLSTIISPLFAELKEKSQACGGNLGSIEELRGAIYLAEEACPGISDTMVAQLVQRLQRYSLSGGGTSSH
The note with it: read-out: % Enzyme Activity (relative to DMSO controls), MST3/STK24.

Assay [4] has as its target T4, panel of 374 wild-type kinases (Homo sapiens, UniProt P35916).
T4 construct: purchased Reaction Biology Corporation
The following applies: read-out: % Enzyme Activity (relative to DMSO controls), FLT4/VEGFR3.

Assay [5] has as its target T5, panel of 374 wild-type kinases (Homo sapiens, UniProt Q8N5S9).
T5 construct: purchased Reaction Biology Corporation
The note with it: read-out: % Enzyme Activity (relative to DMSO controls), CAMKK1.

Assay [6] addresses T6, panel of 374 wild-type kinases (Homo sapiens, UniProt O14757).
T6 construct: purchased Reaction Biology Corporation
T6 sequence (O14757 1-476): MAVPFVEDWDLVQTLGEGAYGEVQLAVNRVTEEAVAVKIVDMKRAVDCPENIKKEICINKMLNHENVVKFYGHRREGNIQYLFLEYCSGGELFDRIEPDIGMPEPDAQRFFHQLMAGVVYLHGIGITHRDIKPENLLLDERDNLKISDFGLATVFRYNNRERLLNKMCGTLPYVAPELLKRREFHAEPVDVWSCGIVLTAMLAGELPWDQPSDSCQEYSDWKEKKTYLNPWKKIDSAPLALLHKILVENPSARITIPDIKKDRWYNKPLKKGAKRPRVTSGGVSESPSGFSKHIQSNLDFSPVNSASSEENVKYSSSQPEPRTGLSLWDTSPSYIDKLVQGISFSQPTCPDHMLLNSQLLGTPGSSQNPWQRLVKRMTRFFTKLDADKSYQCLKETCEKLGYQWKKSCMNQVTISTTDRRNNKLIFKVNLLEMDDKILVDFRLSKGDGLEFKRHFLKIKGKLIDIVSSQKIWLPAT
The note with it: read-out: % Enzyme Activity (relative to DMSO controls), CHK1.

Assay [7] addresses T7, panel of 374 wild-type kinases (Homo sapiens, UniProt Q16816).
T7 construct: purchased Reaction Biology Corporation
The note with it: read-out: % Enzyme Activity (relative to DMSO controls), kinase PHKg1.

Assay [8] addresses T8, panel of 374 wild-type kinases (Homo sapiens, UniProt Q00536).
T8 construct: purchased Reaction Biology Corporation
The note with it: read-out: % Enzyme Activity (relative to DMSO controls), CDK16/cyclin Y (PCTAIRE).

Assay [9] concerns the target T9, panel of 374 wild-type kinases (Homo sapiens, UniProt O43318).
T9 construct: purchased Reaction Biology Corporation
T9 sequence (O43318 1-606): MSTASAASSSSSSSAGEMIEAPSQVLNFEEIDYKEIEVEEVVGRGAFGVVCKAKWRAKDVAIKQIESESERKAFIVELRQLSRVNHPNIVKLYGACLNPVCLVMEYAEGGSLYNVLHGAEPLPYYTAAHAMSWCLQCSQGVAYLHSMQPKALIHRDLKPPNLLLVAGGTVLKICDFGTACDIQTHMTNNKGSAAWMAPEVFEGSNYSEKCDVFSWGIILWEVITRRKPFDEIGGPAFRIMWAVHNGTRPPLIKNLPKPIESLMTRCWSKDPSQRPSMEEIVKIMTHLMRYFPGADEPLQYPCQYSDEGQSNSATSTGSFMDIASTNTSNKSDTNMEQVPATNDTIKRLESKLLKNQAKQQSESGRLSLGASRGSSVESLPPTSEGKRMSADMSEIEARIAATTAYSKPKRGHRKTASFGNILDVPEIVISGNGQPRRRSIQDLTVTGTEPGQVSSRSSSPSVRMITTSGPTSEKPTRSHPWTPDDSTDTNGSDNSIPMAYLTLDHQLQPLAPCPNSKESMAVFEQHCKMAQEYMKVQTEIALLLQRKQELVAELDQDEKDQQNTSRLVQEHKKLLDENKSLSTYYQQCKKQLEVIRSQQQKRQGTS
The following applies: read-out: % Enzyme Activity (relative to DMSO controls), kinase TAK1.

The target in assay [10] is T10, panel of 374 wild-type kinases (Homo sapiens, UniProt P08581).
T10 construct: purchased Reaction Biology Corporation
T10 sequence (P08581 25-1390): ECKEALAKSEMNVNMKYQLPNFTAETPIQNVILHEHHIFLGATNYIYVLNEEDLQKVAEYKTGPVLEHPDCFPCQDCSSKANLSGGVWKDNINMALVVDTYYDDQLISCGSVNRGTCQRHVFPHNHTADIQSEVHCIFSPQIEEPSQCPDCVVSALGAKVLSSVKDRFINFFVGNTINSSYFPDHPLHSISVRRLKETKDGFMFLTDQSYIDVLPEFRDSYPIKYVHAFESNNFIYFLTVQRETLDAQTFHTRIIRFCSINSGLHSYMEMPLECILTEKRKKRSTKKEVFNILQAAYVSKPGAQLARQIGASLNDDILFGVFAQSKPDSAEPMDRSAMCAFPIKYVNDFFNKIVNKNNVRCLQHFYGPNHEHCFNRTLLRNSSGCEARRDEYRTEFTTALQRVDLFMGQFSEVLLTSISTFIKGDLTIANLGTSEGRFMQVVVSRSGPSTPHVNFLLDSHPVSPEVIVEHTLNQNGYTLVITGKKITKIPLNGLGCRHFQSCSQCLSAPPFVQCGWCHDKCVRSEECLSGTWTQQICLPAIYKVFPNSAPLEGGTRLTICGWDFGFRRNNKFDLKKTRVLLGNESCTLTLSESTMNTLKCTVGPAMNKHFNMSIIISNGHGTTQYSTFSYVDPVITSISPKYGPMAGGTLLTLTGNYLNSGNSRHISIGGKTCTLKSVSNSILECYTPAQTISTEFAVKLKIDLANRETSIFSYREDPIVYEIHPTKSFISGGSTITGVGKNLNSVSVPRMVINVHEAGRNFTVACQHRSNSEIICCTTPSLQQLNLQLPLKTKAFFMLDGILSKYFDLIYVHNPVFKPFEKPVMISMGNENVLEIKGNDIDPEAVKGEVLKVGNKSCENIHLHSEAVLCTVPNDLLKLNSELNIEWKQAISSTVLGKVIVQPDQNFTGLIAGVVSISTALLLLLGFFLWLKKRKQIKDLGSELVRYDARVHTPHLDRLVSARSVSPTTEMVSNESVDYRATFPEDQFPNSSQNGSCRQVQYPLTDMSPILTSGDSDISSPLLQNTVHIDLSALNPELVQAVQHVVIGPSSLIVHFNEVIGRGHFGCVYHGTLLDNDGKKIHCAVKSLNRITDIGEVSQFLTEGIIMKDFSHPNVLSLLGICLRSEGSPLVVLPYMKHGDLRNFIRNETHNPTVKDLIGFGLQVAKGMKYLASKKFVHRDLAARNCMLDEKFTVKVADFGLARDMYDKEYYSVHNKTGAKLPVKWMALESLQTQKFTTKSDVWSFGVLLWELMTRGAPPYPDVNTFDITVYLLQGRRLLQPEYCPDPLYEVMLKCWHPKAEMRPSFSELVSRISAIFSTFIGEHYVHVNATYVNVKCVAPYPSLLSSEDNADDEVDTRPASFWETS
The following applies: read-out: % Enzyme Activity (relative to DMSO controls), c-MET.

The target of assay [11] is T11, panel of 374 wild-type kinases (Homo sapiens, UniProt P49759).
T11 construct: purchased Reaction Biology Corporation
T11 sequence (P49759 whole entry): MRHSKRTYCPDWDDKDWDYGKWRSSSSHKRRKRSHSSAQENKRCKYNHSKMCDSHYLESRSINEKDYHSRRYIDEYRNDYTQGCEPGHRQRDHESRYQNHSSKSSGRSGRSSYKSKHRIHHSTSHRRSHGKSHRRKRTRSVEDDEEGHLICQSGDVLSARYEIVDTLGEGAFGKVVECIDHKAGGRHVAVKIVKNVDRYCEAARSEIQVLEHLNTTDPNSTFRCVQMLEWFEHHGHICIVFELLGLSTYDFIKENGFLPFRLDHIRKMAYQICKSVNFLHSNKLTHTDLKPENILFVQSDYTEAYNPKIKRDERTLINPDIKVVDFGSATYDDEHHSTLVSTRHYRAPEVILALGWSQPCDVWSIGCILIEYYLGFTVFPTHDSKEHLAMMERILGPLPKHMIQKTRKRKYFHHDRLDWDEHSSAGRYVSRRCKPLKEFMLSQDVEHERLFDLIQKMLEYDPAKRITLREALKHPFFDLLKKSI
The note with it: read-out: % Enzyme Activity (relative to DMSO controls), CLK1.

Assay [12] has as its target T12, panel of 374 wild-type kinases (Homo sapiens, UniProt P16591).
T12 construct: purchased Reaction Biology Corporation
The following applies: read-out: % Enzyme Activity (relative to DMSO controls), FER.

Molecules are shown by their SMILES.

T7 sequence (Q16816 whole entry): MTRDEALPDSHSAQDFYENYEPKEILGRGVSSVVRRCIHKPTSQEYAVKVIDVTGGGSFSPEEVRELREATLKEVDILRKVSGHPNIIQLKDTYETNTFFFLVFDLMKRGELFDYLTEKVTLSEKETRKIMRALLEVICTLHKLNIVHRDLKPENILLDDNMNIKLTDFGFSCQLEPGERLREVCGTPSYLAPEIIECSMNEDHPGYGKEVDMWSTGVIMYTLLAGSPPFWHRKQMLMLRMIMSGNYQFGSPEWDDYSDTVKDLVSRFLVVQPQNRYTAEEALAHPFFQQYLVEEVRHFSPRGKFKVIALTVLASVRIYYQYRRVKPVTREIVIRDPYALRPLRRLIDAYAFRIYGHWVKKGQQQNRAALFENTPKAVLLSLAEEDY
T5 sequence (Q8N5S9 whole entry): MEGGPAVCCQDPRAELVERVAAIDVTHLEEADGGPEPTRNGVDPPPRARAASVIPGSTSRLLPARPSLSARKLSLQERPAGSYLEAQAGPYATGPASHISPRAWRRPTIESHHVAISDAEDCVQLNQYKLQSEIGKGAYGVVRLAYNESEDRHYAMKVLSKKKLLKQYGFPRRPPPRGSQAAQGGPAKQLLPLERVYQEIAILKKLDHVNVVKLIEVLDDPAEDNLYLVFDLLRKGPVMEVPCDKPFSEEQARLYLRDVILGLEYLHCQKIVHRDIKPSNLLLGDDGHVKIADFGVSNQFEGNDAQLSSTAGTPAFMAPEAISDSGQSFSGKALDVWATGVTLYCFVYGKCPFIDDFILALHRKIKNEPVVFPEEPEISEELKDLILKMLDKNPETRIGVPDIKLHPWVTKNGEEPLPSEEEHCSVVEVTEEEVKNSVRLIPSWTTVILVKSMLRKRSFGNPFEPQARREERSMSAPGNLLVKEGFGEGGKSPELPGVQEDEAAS
T2 sequence (Q96NX5 whole entry): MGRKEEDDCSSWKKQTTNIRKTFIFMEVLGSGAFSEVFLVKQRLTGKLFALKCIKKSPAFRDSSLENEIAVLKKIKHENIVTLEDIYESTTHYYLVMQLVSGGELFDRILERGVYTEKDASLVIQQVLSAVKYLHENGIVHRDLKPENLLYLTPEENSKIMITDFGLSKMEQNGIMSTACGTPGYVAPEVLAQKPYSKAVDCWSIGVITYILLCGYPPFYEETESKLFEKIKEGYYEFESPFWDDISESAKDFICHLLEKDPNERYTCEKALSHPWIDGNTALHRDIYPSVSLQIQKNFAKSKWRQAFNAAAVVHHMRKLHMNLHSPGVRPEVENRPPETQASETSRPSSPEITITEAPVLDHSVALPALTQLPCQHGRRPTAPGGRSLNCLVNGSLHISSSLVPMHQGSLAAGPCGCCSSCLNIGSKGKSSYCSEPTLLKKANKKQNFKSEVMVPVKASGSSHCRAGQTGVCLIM
T8 sequence (Q00536 whole entry): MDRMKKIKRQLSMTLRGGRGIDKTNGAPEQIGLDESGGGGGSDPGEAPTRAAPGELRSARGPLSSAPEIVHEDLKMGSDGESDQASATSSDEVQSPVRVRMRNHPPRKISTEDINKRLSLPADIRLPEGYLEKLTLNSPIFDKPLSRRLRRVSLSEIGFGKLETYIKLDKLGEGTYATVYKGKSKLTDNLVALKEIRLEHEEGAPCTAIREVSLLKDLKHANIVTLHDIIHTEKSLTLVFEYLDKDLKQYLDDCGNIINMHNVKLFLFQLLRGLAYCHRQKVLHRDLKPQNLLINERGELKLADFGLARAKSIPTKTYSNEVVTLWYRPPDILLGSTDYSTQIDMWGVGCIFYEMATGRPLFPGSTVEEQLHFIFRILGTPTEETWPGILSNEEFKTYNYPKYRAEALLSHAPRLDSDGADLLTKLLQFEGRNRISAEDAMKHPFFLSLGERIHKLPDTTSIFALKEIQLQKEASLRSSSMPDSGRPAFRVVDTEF
T12 sequence (P16591 whole entry): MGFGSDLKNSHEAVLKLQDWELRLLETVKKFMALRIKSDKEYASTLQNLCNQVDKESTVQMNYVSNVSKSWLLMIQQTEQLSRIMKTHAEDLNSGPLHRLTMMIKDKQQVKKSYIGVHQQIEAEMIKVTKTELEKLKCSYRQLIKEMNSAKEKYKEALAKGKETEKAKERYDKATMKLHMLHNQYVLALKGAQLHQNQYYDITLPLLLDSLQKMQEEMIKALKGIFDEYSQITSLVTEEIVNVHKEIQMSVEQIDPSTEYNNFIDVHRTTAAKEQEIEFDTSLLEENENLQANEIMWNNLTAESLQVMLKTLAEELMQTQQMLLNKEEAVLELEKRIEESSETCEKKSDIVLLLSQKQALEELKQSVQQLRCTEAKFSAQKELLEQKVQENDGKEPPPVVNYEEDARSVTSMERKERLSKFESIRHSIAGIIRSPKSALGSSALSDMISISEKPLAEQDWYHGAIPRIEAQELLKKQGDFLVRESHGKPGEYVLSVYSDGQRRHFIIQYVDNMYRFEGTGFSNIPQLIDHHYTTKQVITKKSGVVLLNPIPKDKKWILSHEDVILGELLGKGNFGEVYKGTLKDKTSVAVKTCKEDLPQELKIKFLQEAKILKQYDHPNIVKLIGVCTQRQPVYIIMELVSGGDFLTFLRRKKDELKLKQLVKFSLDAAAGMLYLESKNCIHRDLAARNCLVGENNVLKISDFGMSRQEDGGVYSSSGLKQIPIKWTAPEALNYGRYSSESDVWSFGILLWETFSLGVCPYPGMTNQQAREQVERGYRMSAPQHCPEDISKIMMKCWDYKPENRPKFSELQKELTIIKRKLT

In the case of `O=C(Nc1cnn(-c2csc(C(=O)NC3COC3)c2)c1)Nc1ccccc1Cl` [Compound 17, 4-(4-(3-(2-chlorophenyl)ureido)-1H-pyrazol-1-yl)-N-(oxetan-3-yl)thiophene-2-carboxamide], the remaining activity at 5 µM in [1] was 97.9%; in assay [2] it was 94.2%; in [3], 113%; in assay [4], 93.8%; in [5] it was 130%; in assay [6] it was 98.7%. For the same compound, the remaining activity at 5 µM in [7] stood at 102%; in [8], 94.8%; in [9] it was 98%; in [10], 102%; in assay [11], 81%; in assay [12], 101%.

As to `O=C(Nc1cnn(-c2csc(C(=O)NC3COC3)c2)c1)Nc1c(F)cccc1Cl` [Compound 25, 4-(4-(3-(2-chloro-6-fluorophenyl)ureido)-1H-pyrazol-1-yl)-N-(oxetan-3-yl)thiophene-2-carboxamide], the remaining activity at 5 µM is 95.2% in assay [1]; 94% in assay [2]; 81.6% in assay [3]; 86.6% in assay [4]; 93.7% in [5]; 141% in assay [6]. For the same compound, the remaining activity at 5 µM in [7] was determined as 91.2%; in [8], 101%; in assay [9], 109%; in [10] it was 86.1%; in [11], 74.9%; in [12] it was 89.8%.

`Cc1sc(C(=O)NC2COC2)cc1-n1cc(NC(=O)Nc2c(F)cccc2Cl)cn1` [Compound 27, 4-(4-(3-(2-chloro-6-fluorophenyl)ureido)-1H-pyrazol-1-yl)-5-methyl-N-(oxetan-3-yl)thiophene-2-carboxamide]: the remaining activity at 10 µM stood at 96.9% in assay [1] (10 uM); 93.1% in [2] (10 uM); 67.3% in assay [3] (10 uM); 81.9% in assay [4] (10 uM); 121% in assay [5] (10 uM); 118% in assay [6] (10 uM). Besides, the remaining activity at 10 µM in assay [7] (10 uM) was determined as 84%; in assay [8] (10 uM), 102%; in assay [9] (10 uM) it was 98.4%; in [10] (10 uM), 77%; in assay [11] (10 uM), 98.4%; in [12] (10 uM) it was 90%.
